Assay results taken from US5393765A, “Pharmaceutical compositions with constant erosion volume for zero order controlled release” (Hoffmann-La Roche Inc., priority 1993, dated 1995).
Values after ≈ are worked out from the molar mass of the structure shown. Structures can show the parent of a compound that is named as a salt. Where two headings read alike, the source gives them in different places.

Assays:
[1] = Solubility of the exemplary drugs in water at 25° C.; type: physicochemical
Procedure: Solubility of the exemplary drugs in water at 25° C. is as follows: […]

[2] = Drug release from the erodible matrix, USP dissolution test (Basket or Paddle Method); type: physicochemical; details: in the given dissolution medium; FIGS. 2-7 and 9-15; FIG. 8 (chlorpheniramine maleate composition with the polymer, water, 37° C., Basket Method, 100 rpm)
Procedure: The evaluation of drug release from the erodible matrix was performed using the USP dissolution test procedure with either the Basket or Paddle Method at the speed as specified. […] Briefly, in both methods, one tablet is placed in the appropriate apparatus described below containing the specified amount of dissolution medium and the stirring element is started. The amount of drug in solution is determined by the UV spectrophotometric method as is known in the art. The assembly used in the Basket Method consists of the following: a covered vessel made of glass with nominal capacity 1000 mL; a motor; a metallic drive shaft; and a cylindrical basket. The vessel containing 900 mL of the specified dissolution medium (i.e., water, 1% nonionic surfactant Emulphor ON-870 in phosphate buffer, pH 7.5 or 3% sodium lauryl sulfate, pH 9.0) is partially immersed in a suitable water bath and equilibrated at 37°±0.5° C. A fitted cover may be used to retard evaporation. The shaft is positioned so that its axis is not more than 2 mm at any point from the vertical axis of the vessel and rotates smoothly and without significant wobble. A speed-regulating device is used that allows the shaft rotation speed to be selected and maintained at the specified rate. The recommended basket speed is 100 rpm. […] The drug analysis was determined by UV spectrophotometry.

[3] = in water at 25° C., read-out: Solubility

Structure (SMILES) | solubility [1, 3] [µg/mL] | further results
COc1ccc([C@@H]2Sc3c(ccc4ccccc34)N(CCN(C)C)C(=O)[C@@H]2OC(C)=O)cc1 (single isomer, unassigned) [(+)-cis-3-(Acetyloxy)-2,3-dihydro-2-(4-methoxyphenyl)-5-[2-(dimethylamino)ethyl]naphtho[1,2-b]-1,4-thiazepin-4(5H)-one] | 80000 (≈ 172000 µM) | 
Cc1nnc2n1-c1sc(C#CCn3c(=O)c4ccccc4c4ccccc43)cc1C(c1ccccc1Cl)=NC2 [5-[3-[4-(2-Chlorophenyl)-9-methyl-6H-thieno[3,2-f][1,2,4]triazolo[4,3-a][1,4]diazepin-2-yl]-2-propynyl]phenanthrydin-6(5H)-one] |  | solubility ([1]; water): 0.01 µg/mL (≈ 0.0183 µM)
CNC1=Nc2ccc(Cl)cc2C(c2ccc[nH]2)=NC1 [7-Chloro-N-methyl-5-(1H-pyrrol-2-yl)-3H-1,4-benzodiazepin-2-amine] | 1.5 (≈ 5.5 µM) | 
CN(C)CCC(c1ccc(Cl)cc1)c1ccccn1 (stereo not drawn) [chlorpheniramine maleate] |  | Release profile (zero order) [2]: does not produce a zero-order release profile
O=C(CCCCCCCCc1cccnc1)N1CCC(C=C(c2ccccc2)c2ccccc2)CC1 [4-(2,2-Diphenylethenyl)-1-[1-oxo-9-(3-pyridinyl)nonyl]piperidine] | 0.182 (≈ 0.379 µM) | 
CCC(CC)(CC(=O)Nc1cccc(/C=C/c2nc(C3CCC3)cs2)c1)C(=O)O [(E)-4-[[3-[2-(4-Cyclobutyl-2-thiazolyl)ethenyl]phenyl]amino]-2,2-diethyl-4-oxobutanoic acid] | < 2 | 
